In patent publication US20220133837A1, “PEPTIDE INHIBITORS OF NF KAPPA B AND USE THEREOF IN TREATMENT OF COVID-19 AND INFLAMMATORY DISEASES” (priority 2020, published 2022):
Read-outs that look alike come from different tables or passages of the source. Non-standard residues stand in square brackets, D forms with d. Residues, ends and D or L forms follow the SMILES beside them. No end group written: not given here.

What was measured:
ACE2 receptor = type: cell-based, human; settings: control cells set at 1.000, cells harvested after 24 hours
TMPRSS2 = type: cell-based, human; settings: control cells set at 1.000, cells harvested after 24 hours
NFKB1 = type: cell-based, human; settings: control cells set at 1.000, cells harvested after 24 hours
NFKB2 = type: cell-based, human; settings: control cells set at 1.000, cells harvested after 24 hours
TNF = type: cell-based, human; settings: control cells set at 1.000, cells harvested after 24 hours
TNFRSF1A = type: cell-based, human; settings: control cells set at 1.000, cells harvested after 24 hours
TNFRSF9 = type: cell-based, human; settings: control cells set at 1.000, cells harvested after 24 hours
ILIA = type: cell-based, human; settings: control cells set at 1.000, cells harvested after 24 hours
IL1B = type: cell-based, human; settings: control cells set at 1.000, cells harvested after 24 hours
IL6 = type: cell-based, human; settings: control cells set at 1.000, cells harvested after 24 hours
CCL2 = type: cell-based, human; settings: control cells set at 1.000, cells harvested after 24 hours
CCL5 = type: cell-based, human; settings: control cells set at 1.000, cells harvested after 24 hours
CXCL8 = type: cell-based, human; settings: control cells set at 1.000, cells harvested after 24 hours
[1] = tested on: carrageenan (CAR) induced inflammation model; experiment: Carrageenan (CAR) induced paw edema model; type: in vivo; settings: rat, peptide 70 ng, 1 nanomole injected 30 minutes after CAR; for Edema, change in paw volume after CAR injection: sub-plantar CAR 100 μL of 1% suspension, plethysmometer hourly for 24 h, versus control animals
Description: The anti-inflammatory activity of YMAP[D]EV (SEQ ID NO:116) was also examined in a classical carrageenan (CAR) induced inflammation model (Ivan G. Otterness, Peter F. Moore, Carrageenan foot edema test, Methods in Enzymology, Academic Press, Volume 162, 1988, Pages 320-327, (see URL www.sciencedirect.com/science/article/pii/0076687988620866); Fehrenbacher J C et al., Models of inflammation: Carrageenan- or complete Freund's Adjuvant (CFA)-induced edema and hypersensitivity in the rat. Curr Protoc Pharmacol. 2012 March; Chapter 5m Unit5.4, doi:10.1002/0471141755.ph0504s56. PMID: 22382999; PMCID: PMC4683998.). Paw edema was induced by a sub-plantar injection of CAR (100 μL of a 1% suspension in 0.85% saline). In the treatment group, YMAP[D]EV (SEQ ID NO:116) (70 ng, 1 nanomole) was injected 30 minutes after CAR injection. Changes in paw volume were measured using a plethysmometer immediately before CAR injection, and then at hourly intervals for 24 h. Edema was expressed as change in paw volume (mL) after CAR injection relative to the pre-injection value for each rat.

Compound: CSCC[C@H](NC(=O)[C@@H](N)Cc1ccc(O)cc1)C(=O)N[C@@H](C)C(=O)N1CCC[C@H]1C(=O)N[C@H](CCC(=O)O)C(=O)N[C@H](C(=O)O)C(C)C [PEP2, L-tyrosyl-L-methionyl-L-alanyl-L-prolyl-D-glutamyl-L-valine] (H-YMAP[dE]V-OH)
- ACE2 receptor RNA expression, ratio of treated cells to control cells (ACE2 receptor; DriverMap gene analysis): 1.000
- TMPRSS2 RNA expression, ratio of treated cells to control cells (TMPRSS2; DriverMap gene analysis): 1.000
- NFKB1 RNA expression, ratio of treated cells to control cells (NFKB1; DriverMap gene analysis): 0.243
- NFKB2 RNA expression, ratio of treated cells to control cells (NFKB2; DriverMap gene analysis): 0.138
- TNF RNA expression, ratio of treated cells to control cells (TNF; DriverMap gene analysis): 0.015
- TNFRSF1A RNA expression, ratio of treated cells to control cells (TNFRSF1A; DriverMap gene analysis): 0.752
- TNFRSF9 RNA expression, ratio of treated cells to control cells (TNFRSF9; DriverMap gene analysis): 0.007
- ILIA RNA expression, ratio of treated cells to control cells (ILIA; DriverMap gene analysis): 0.260
- IL1B RNA expression, ratio of treated cells to control cells (IL1B; DriverMap gene analysis): 0.010
- IL6 RNA expression, ratio of treated cells to control cells (IL6; DriverMap gene analysis): 0.057
- CCL2 RNA expression, ratio of treated cells to control cells (CCL2; DriverMap gene analysis): 0.059
- CCL5 RNA expression, ratio of treated cells to control cells (CCL5; DriverMap gene analysis): 0.0003
- CXCL8 RNA expression, ratio of treated cells to control cells (CXCL8; DriverMap gene analysis): 0.0052
- Duration of the effect on edema ([1]; 24-hour period of observation): ≥ 24 h
- Edema, change in paw volume after CAR injection [1]: marked decrease in edema within two hours

Compound: ANVAENA [PEP1, L-alanyl-L-asparaginyl-L-valyl-L-alanyl-L-glutamyl-L-asparaginyl-L-alanine]
- ACE2 receptor RNA expression, ratio of treated cells to control cells (ACE2 receptor; Affymetrix gene arrays): 0.632
- TMPRSS2 RNA expression, ratio of treated cells to control cells (TMPRSS2; Affymetrix gene arrays): 0.525
- NFKB1 RNA expression, ratio of treated cells to control cells (NFKB1; Affymetrix gene arrays): 0.927
- NFKB2 RNA expression, ratio of treated cells to control cells (NFKB2; Affymetrix gene arrays): 0.851
- TNF RNA expression, ratio of treated cells to control cells (TNF; Affymetrix gene arrays): 0.349
- TNFRSF1A RNA expression, ratio of treated cells to control cells (TNFRSF1A; Affymetrix gene arrays): 1.415
- TNFRSF9 RNA expression, ratio of treated cells to control cells (TNFRSF9; Affymetrix gene arrays): 1.136
- ILIA RNA expression, ratio of treated cells to control cells (ILIA; Affymetrix gene arrays): 0.036
- IL1B RNA expression, ratio of treated cells to control cells (IL1B; Affymetrix gene arrays): 0.691
- IL6 RNA expression, ratio of treated cells to control cells (IL6; Affymetrix gene arrays): 1.135
- CCL2 RNA expression, ratio of treated cells to control cells (CCL2; Affymetrix gene arrays): 1.298
- CCL5 RNA expression, ratio of treated cells to control cells (CCL5; Affymetrix gene arrays): 0.456
- CXCL8 RNA expression, ratio of treated cells to control cells (CXCL8; Affymetrix gene arrays): 1.135
- Edema, change in paw volume after CAR injection [1]: nearly identical data
